Test results from US20170198363A1, “COMPOSITIONS AND METHODS FOR DETECTION OF SMALL MOLECULES” (COLORADO STATE UNIVERSITY RESEARCH FOUNDATION, priority 2015, published 2017).
Substitutions are numbered along the chain they refer to.

Experiments:
[1] = tested on: plant biosensor (G-DIG1-V-Matα2); test: Induction of the plant biosensor by steroids; format: in vivo, Arabidopsis thaliana; details: transgenic Arabidopsis
yeast = test: Progesterone toxicity to yeast cells
plant cells = test: Progesterone toxicity to plant cells (protoplasts)
degron-G-PRO1-V = biological target: T1, degron-G-PRO1-V (Saccharomyces cerevisiae, UniProt P0CY08); test: HIS3 reporter growth assay, strain PJ69-4a; format: cell-based, yeast; details: HIS3 reporter strain PJ69-4a
T1 construct: expressed in transfected cells; host or cells: S. cerevisiae strain PJ69-4a transformed with a p16C (p416CYC) plasmid

[2] = Progesterone biosensor luciferase assay in plant protoplasts; format: cell-based; details: 25 μM progesterone, L77F mutation in the Gal4 DBD
[3] = cited from earlier work
[4] = cited from earlier work; remark: listed apart in the source
[5] = PRO0 binding of progesterone

For `C[C@H]1O[C@@H](O[C@H]2[C@@H](O)C[C@H](O[C@H]3[C@@H](O)C[C@H](O[C@H]4CC[C@@]5(C)[C@H](CC[C@@H]6[C@@H]5C[C@@H](O)[C@]5(C)[C@@H](C7=CC(=O)OC7)CC[C@]65O)C4)O[C@@H]3C)O[C@@H]2C)C[C@H](O)[C@@H]1O` [digoxin], the “induction of the plant biosensor” value [1] was “capable of inducing”.

In the case of `CC(=O)[C@H]1CC[C@H]2[C@@H]3CCC4=CC(=O)CC[C@]4(C)[C@H]3CC[C@]12C` [Progesterone, progesterone], the “level at which toxic, leading to substantial cell death” value (yeast) is reported as no less than 100 µM, the “concentration that seems to be toxic to the plant cells” value (plant cells) is reported as 250 µM and the “stimulation of growth of degron-G-PRO1-V” value (degron-G-PRO1-V) is reported as “stimulated”.

B1: PRO2: progesterone binding sensor protein, SEQ ID NO:17, tested as TF-biosensor in plant protoplasts (protein)
chain: MNAKEIVVHSLRLLENGDARGWSDLFHPEGVLEFPYAPPGHKTRFEGRETIWAHMRLFPEYVTVRFTDVQFYETADPDLAIGEFHGDGVLTASGGMLAFDFIAVWRTRDGQILQYRVFYNPLRELEALGGVEAAAKIVQGAGSLE
With B1 the “increase in luciferase expression over background levels” value [2] was roughly 3 fold.

B2: DIG10.3 (protein)
chain: B1 chain with F34Y, M96K, F99Y, F101Y, Q114L, Y119F, E124V
In the case of B2, the affinity for digoxigenin [3] is given as “picomolar” and the affinity for digoxin [4] is given as “picomolar”.

B3: PRO0: progesterone binder from three rationally designed binding site mutations in DIG0; SEQ ID NO:13 (protein)
chain: B1 chain with M96K, Q114L, Y119F, E124V
For B3, the affinity for progesterone [5] was “nanomolar”.
